Results reported in patent US7973079B2, “Methods and compounds for treating retinol-related diseases” (Revision Therapeutics, Inc., priority 2007, dated 2011).
pIC50: −log10 of the molar value.

What was measured:
RBP4-TTR interaction = RBP4-TTR interaction (Homo sapiens, UniProt P02753); test: High throughput in vitro assay detecting inhibition of RBP-TTR interaction; assay type: binding; conditions: Table 1, read-out: Apparent 50 IC
Method: In some embodiments, the modulators disclosed herein are also used in in vitro assays for detecting perturbations in RBP or TTR activity. For example, the modulator is added to a sample comprising RBP, TTR and retinol to detect complex disruption. A component, for example, RBP, TTR, retinol or the modulator, is labeled to determine if disruption of complex formation occurs. For example, complex formation and subsequent disruption is detected and/or measured through conventional means, such as the sandwich assays disclosed above. Other detection systems are also used to detect modulation of RBP or TTR binding, for example, FRET detection of RBP-TTR-retinol complex formation.
The optimal dose of compounds of Formula (I) or (II) to block formation of A2E in abca4-1 mice is determined using a standard dose escalation study. In order to determine the range of doses which will be employed, a high throughput, in vitro assay which detects modulators that inhibit RBP-TTR interaction has been developed. […] An illustrative in vivo approach, utilizing a compound having the structure of Formula (I) or (II) is presented below.

[1] = test system: panel of six cytochrome P450 isozymes; test: Cytochrome P450 inhibition profile (panel of six isozymes); assay type: in vitro ADME
RBP4+/+, ABCA4−/− mice = test: Serum retinol in HPR-treated mice compared with genetic reduction of RBP4; assay type: in vivo; conditions: HPR for a 28-day period, ABCA4+/− mice (>50% reduction)
Source text: FIG. 6. Genetic modulation of RBP4 in abca4 mutant mice: effects on serum retinol, RBP4 and toxic retinal fluorophores. A line of mice which expresses heterozygous mutations in RBP4 and ABCA4 (RBP4+/−, ABCA4+/−) was generated in order to determine if genetic reduction of RBP4 would be sufficient to reduce serum levels of retinol, RBP4 and toxic retinal fluorophores within the RPE. Serum retinol concentrations in RBP4+/−, ABCA4+/− mice were reduced by greater than 50% compared to mice with the normal complement of RBP (RBP4+/+, ABCA4−/−). […] Reductions in serum retinol correlated directly with reductions in RBP4, as determined by immunoblot analysis. Western blot identification of RBP4 in the various mouse lines is shown in panel B. Histological analysis were also performed. Tissue sections from RBP4+/+, ABCA4+/− mice (panel C), RBP4+/−, ABCA4+/− (panel D) and RBP4+/+, ABCA4+/+ (panel E) were analyzed by fluorescence microscopy.
Exploration of a non-pharmacological means of reducing lipofuscin fluorophores in order to validate our therapeutic approach based upon reduction of RBP levels in a patient will be performed. In this study, RBP protein levels will be reduced through genetic manipulation. Two new lines of mice expressing heterozygous mutations in retinol binding protein (RBP4) are generated. […]

Row | pIC50 (RBP4-TTR interaction) | inhibition at 2 μM [1] [%] | SMILES | degree of serum retinol reduction (RBP4+/+, ABCA4−/− mice)
1 | 6.00 | ~50 | CC(C)(C)c1cc(Cl)ccc1OCCCCC(=O)Nc1ccc(O)cc1 [5-(2-tert-Butyl-4-chlorophenoxy)-N-(4-hydroxyphenyl)pentanamide] | 
2 | 7.00 | ≤ 10 | CC(C)(C)c1cc(Cl)ccc1OCCCCC(=O)O [5-(2-tert-Butyl-4-chlorophenoxy)pentanoic Acid] | 
3 | 6.00 | ~40 | CC(C)(C)c1cc(Cl)ccc1OCCCCCCC(=O)Nc1ccc(O)cc1 [7-(2-tert-butyl-4-chlorophenoxy)-N-(4-hydroxyphenyl)heptanamide] | 
4 | 6.30 | ~15 | CC(C)(C)c1cc(Cl)ccc1OCCCCCCC(=O)O [7-(2-tert-butyl-4-chlorophenoxy)heptanoic acid] | 

Further lines, the molecule ahead of its results:

Row | SMILES | pIC50 (RBP4-TTR interaction) | inhibition at 2 μM [1] [%] | degree of serum retinol reduction (RBP4+/+, ABCA4−/− mice)
5 | CC(C)(C)c1cc(Cl)ccc1OCCCCC(=O)Nc1ccc(CC(=O)O)cc1 [2-(4-(5-(2-tert-butyl-4-chlorophenoxy)pentanamido)phenyl)acetic acid] | 6.00 | < 10 | 
6 | CC(C)(C)c1cc(Cl)ccc1OCC1CCC(C(=O)Nc2ccc(O)cc2)C1 (centres unmarked) [3-((2-tert-butyl-4-chlorophenoxy)methyl)-N-(4-hydroxyphenyl)cyclopentanecarboxamide] |  | < 10 | 
7 | CC(C)(C)c1cc(Cl)ccc1OCC1CCCC(C(=O)O)C1 (centres unmarked) [3-((2-tert-butyl-4-chlorophenoxy)methyl)cyclohexanecarboxylic acid] | 6.80 | < 10 | 
8 | CC(C)(C)c1cc(Cl)ccc1OCC1CCC(C(=O)O)C1 (centres unmarked) [3-((2-tert-butyl-4-chlorophenoxy)methyl)cyclopentanecarboxylic acid] | 6.40 | < 10 | 
9 | CC(C)(C)c1cc(Cl)ccc1OCCCC(=O)O [4-(2-tert-butyl-4-chlorophenoxy)butanoic acid] | 6.00 | ~15 | 
10 | CC(C)(C)c1cc(Cl)ccc1OCC1CCC(C(=O)Nc2ccc(C(=O)O)cc2)C1 (centres unmarked) [4-(3-((2-tert-butyl-4-chlorophenoxy)methyl)cyclopentanamido)benzoic acid] |  | < 10 | 
11 | CC(C)(C)c1cc(Cl)ccc1OCCCCC(=O)Nc1ccc(C(=O)O)cc1 [4-(5-(2-tert-Butyl-4-chlorophenoxy)pentanamido)benzoic acid] |  | < 10 | 
12 | CC1=C(/C=C/C(C)=C/C=C/C(C)=C/C(=O)Nc2ccc(O)cc2)C(C)(C)CCC1 [HPR, fenretinide] |  |  | comparable
